The values that follow come from ChEMBL document CHEMBL1139483, “Inhibitors of tripeptidyl peptidase II. 3. Derivation of butabindide by successive structure optimizations leading to a potential general approach to designing exopeptidase inhibitors” (J Med Chem, 2005).

Where a SMILES comes first, the peptide text is derived from it. [ ]: non-standard residue; d: D form. The star is where a group is joined. Pip = O=C(O)[C@@H]1CCCCN1; Nle = CCCC[C@H](N)C(=O)O; βNA = c1ccc2cc(N*)ccc2c1; Aze = O=C(O)[C@@H]1CCN1; Nva = CCC[C@H](N)C(=O)O; Abu = CC[C@H](N)C(=O)O; Aib = CC(C)(N)C(=O)O; NHBn = c1ccc(CN*)cc1; NHBu = CCCCN*

The target in this assay is Tripeptidyl-peptidase 2 (Rattus norvegicus, UniProt Q64560). Put plainly: Inhibition of TPPII in rat cerebral membrane. Type of assay: cell membranes.
Tripeptidyl-peptidase 2, sequence (Q64560 whole entry): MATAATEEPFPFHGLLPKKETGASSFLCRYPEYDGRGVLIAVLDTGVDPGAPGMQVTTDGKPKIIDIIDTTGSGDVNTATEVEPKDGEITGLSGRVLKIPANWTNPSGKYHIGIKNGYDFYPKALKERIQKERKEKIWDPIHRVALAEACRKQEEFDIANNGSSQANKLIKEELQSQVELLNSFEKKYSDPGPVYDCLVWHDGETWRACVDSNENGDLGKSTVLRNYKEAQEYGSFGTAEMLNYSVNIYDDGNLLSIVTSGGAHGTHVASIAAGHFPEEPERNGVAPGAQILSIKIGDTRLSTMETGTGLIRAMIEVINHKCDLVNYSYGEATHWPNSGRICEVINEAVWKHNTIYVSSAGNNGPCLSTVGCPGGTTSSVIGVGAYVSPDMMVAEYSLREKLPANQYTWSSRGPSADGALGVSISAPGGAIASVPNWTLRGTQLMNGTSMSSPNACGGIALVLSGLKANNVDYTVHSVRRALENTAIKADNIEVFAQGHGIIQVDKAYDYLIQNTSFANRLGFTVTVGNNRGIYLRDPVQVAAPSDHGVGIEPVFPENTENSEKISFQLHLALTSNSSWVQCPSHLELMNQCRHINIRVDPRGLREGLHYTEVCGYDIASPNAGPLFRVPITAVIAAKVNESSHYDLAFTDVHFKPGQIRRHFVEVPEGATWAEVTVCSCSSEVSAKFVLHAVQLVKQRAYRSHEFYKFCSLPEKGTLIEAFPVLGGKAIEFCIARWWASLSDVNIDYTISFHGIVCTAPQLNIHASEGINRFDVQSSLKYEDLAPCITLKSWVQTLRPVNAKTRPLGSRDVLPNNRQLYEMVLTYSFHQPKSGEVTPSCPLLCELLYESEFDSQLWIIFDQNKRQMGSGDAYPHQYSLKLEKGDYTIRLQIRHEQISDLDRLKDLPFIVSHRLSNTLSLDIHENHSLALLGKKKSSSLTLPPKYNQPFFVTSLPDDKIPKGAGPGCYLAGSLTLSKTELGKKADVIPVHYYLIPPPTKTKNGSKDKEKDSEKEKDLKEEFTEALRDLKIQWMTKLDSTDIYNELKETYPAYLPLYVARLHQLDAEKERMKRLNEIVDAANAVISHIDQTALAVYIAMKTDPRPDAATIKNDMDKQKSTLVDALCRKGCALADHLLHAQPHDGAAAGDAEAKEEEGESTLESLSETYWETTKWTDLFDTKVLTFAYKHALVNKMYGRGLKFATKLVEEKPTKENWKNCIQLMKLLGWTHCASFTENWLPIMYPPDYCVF
Usually Ki stands for a dissociation constant, usually derived from enzyme kinetics or from competition with a known ligand. A low value points to a stronger hold on the target. As to `CCCCNC(=O)[C@@H]1CCCCN1C(=O)[C@@H](N)CC` (H-[Abu]-[Pip]-NHBu), the Ki turned out to be 35 µM.

Take `CC[C@H](C)NC(=O)[C@@H]1CCCN1C(=O)[C@@H](N)CC`: the Ki stood at 20 µM. Compared with the last compound, the Ki is about 1.8-fold lower.

For the compound `CCCCNC(=O)[C@@H]1CCCN1C(=O)[C@@H](N)CC` (H-[Abu]-Pro-NHBu), the Ki turned out to be 0.08 µM.

Take `CC[C@H](N)C(=O)N1CCC[C@H]1C(N)=O` (H-[Abu]-Pro-NH2): the affinity corresponds to a Ki of 0.57 µM.

For the compound `CC[C@H](N)C(=O)N1CCCC[C@@H]1C(N)=O`, the Ki was 12 µM.

`CC(C)[C@H](N)C(=O)N1CCC[C@H]1C(=O)NN1CCCCC1` showed an inhibition constant (Ki) of 57 µM.

`CCCCNC(=O)[C@@H]1CC(Cc2ccccc2)CN1C(=O)[C@@H](N)CC` (stereo partly drawn) yielded an inhibition constant (Ki) of 0.14 µM.

Take `C[C@H](N)C(=O)N1CCC[C@H]1C(N)=O` (H-Ala-Pro-NH2): the inhibitory constant (Ki) stood at 2.1 µM.

The compound `CC(C)[C@H](N)C(=O)N1CCC[C@H]1C(N)=O` (H-Val-Pro-NH2) yielded an inhibition constant (Ki) of 6 µM.

For the compound `CC(C)[C@H](N)C(=O)N1CCC[C@H]1C(=O)Nc1ccc2ccccc2c1` (H-Val-Pro-βNA), the inhibition constant (Ki) was determined as 860 µM.

In turn, `CCCCNC(=O)[C@H]1CCCN1C(=O)[C@@H](N)C(C)C` showed a Ki of 190 µM.

`CC[C@H](N)C(=O)N1CC[C@H]1C(N)=O` (H-[Abu]-[Aze]-NH2) returned a Ki of 20 µM. This Ki lies about 9.5-fold lower than the previous one.

With `CC[C@@H](C)NC(=O)[C@@H]1CCCN1C(=O)[C@@H](N)CC`, the Ki was 4.5 µM. Against the preceding compound, the Ki is about 4.4-fold lower.

Consider `CC[C@H](N)C(=O)N1CSC[C@@H]1C(N)=O`, for which the inhibition constant Ki turned out to be 40 µM.

As to `CC(C)[C@H](N)C(=O)N1CCC[C@H]1C(=O)NCc1ccccc1` (H-Val-Pro-NHBn), the affinity corresponds to a Ki of 3.3 µM. Compared with the last compound, the Ki is about 12-fold lower.

In turn, `CC[C@H](C)[C@H](N)C(=O)N1CCC[C@H]1C(N)=O` (H-Ile-Pro-NH2) registered a Ki of 4.3 µM.

Compound `CCCCNC(=O)C1CCCCCN1C(=O)[C@@H](N)CC` (stereo partly drawn) came in with an inhibition constant (Ki) of 6 µM. The Ki values of the last two compounds are within 1.5-fold of each other.

In turn, `CCC[C@H](N)C(=O)N1CCC[C@H]1C(N)=O` (H-[Nva]-Pro-NH2) showed a Ki of 1.6 µM.

In the case of `NC(=O)[C@@H]1CCCN1C(=O)[C@@H](N)Cc1ccccc1` (H-Phe-Pro-NH2), affinity was put at a Ki of 71 µM. Against the preceding compound, the Ki is about 44-fold higher.

With `CC(C)C[C@H](N)C(=O)N1CCC[C@H]1C(N)=O` (H-Leu-Pro-NH2), affinity was put at a Ki of 2.1 µM. Compared with the last compound, the Ki is about 34-fold lower.

Take `CCCC[C@H](N)C(=O)N1CCC[C@H]1C(N)=O` (H-[Nle]-Pro-NH2): the Ki came out at 2 µM.

The compound `CCCCNC(=O)[C@@H]1CCCN1C(=O)C(C)(C)N` (H-[Aib]-Pro-NHBu) displayed a Ki of 5 µM.

`CC[C@H](N)C(=O)N1CCC[C@H](C(N)=O)C1` gave a Ki of 40 µM.
